This assay deals with T1, fatty acyl CoA: cholesterol acyl transferase (ACAT) (Rattus norvegicus, UniProt O70536).
T1 construct: The supernatant, containing the microsomal fraction, served as the source of the cholesterol-esterifying enzyme; from tissue; host or cells: rat adrenals, supernatant of 1,000 x g centrifugation containing the microsomal fraction
T1 sequence (O70536 1-545): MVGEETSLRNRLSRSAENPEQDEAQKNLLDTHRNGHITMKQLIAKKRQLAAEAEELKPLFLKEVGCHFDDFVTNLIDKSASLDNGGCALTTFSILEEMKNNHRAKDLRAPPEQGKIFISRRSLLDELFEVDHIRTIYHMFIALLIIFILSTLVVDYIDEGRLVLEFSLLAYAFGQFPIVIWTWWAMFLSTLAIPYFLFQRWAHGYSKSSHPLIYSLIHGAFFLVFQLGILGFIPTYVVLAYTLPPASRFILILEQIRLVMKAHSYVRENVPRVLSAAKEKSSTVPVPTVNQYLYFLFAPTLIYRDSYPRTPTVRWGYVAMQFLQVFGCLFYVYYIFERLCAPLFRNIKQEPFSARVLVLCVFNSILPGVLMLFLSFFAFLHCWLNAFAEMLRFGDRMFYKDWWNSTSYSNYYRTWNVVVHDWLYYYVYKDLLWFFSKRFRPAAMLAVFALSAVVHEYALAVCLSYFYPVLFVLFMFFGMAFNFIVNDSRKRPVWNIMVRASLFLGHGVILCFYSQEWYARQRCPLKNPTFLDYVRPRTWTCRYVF
As to the kind of experiment: Inhibition of fatty acyl CoA:cholesterol acyl transferase (ACAT), rat adrenal enzyme. It is filed as biochemical. On the procedure:
The compounds of the present invention were assayed for two types of biological activity related to their potential use as antiatherosclerotic agents. Compounds were tested in vitro for the ability to inhibit the enzyme fatty acyl CoA: cholesterol acyl transferase (ACAT) and in vivo for serum hypolipidemic activity as meausred by the ability to inhibit lipid absorption in rats.
The compounds were tested for their ability to inhibit ACAT according to the following procedure: rat adrenals were homogenized in 0.2M monobasic potassium phosphate buffer, pH 7.4, and centrifuged at 1,000 times gravity for 15 minutes at 5° C. The supernatant, containing the microsomal fraction, served as the source of the cholesterol-esterifying enzyme, fatty acyl CoA:cholesterol acyl transferase (ACAT). A mixture comprising 50 parts of adrenal supernatant, 10 parts of bovine serum albumin (50 mg/ml), 3 parts of test compound (final concentration 5.2 μg/ml), and 500 parts of buffer was preincubated at 37° C. for 10 minutes. After treatment with 20 parts of oleoyl CoA (^14 C-0.4 μCi), the mixture was incubated at 37° C. for 10 minutes. A control mixture, omitting the test compound, was prepared and treated in the same manner. The lipids from the incubation mixture was extracted into an organic solvent and separated by thin-layer chromatography. The cholesteryl ester fraction was counted in a scintillation counter. This procedure is a modification of that described by Hashimoto, et al., Life Scie., 12 (Part II), 1-12 (1973).
Compounds which produced statistically significant inhibition of the ACAT enzyme are considered to be active.
In addition to the above described test and the results given in terms of percent inhibition, various compounds of this invention were tested by the same procedure at several concentrations. The results of this test are given in Table II in terms of IC50 (μM), that concentration which produced 50% inhibition of the ACAT enzyme.

The mark [1] stands for this setting: rat adrenal ACAT, final concentration 5.2 μg/ml, read-out: % Inhibition.

Read-outs that look alike come from different tables or passages of the source.

For the compound `CCCCN(Cc1ccccc1)C(=O)Nc1c(C)cc(C)cc1C` [1-Benzyl-1-( -n-butyl)-3-(2,4,6-trimethylphenyl)urea], the inhibition at 5.2 µg/mL under setting [1] is 75.8%.

With `CCCCN(Cc1ccccc1)C(=O)Nc1cccc(C)c1` [1-Benzyl-1-( -n-butyl)-3-(3-methylphenyl)urea], the inhibition at 5.2 µg/mL under setting [1] turned out to be 92.3%.

Regarding `COc1ccc(CCN(Cc2ccc(C)c(Cl)c2)C(=O)Nc2ccc(C)cc2C)cc1OC` [1-[2-(3,4-Dimethoxyphenyl)ethyl]-1-(3-chloro-4-methylbenzyl)-3-(2,4-dimethylphenyl)urea], under setting [1], the inhibition at 5.2 µg/mL turned out to be 53.3%.

In the case of `CCCCN(Cc1ccc(C(C)(C)C)cc1)C(=O)Nc1ccc(C)cc1C` [1-(n-Butyl)-1-(4-tert-butylbenzyl)-3-(2,4-dimethylphenyl)urea], the inhibition at 5.2 µg/mL under setting [1] was determined as 96.4%.

For `CCCCN(Cc1ccccc1)C(=O)Nc1cccc(Cl)c1` [1-Benzyl-1-(n-butyl)-3-(3-chlorophenyl)urea], under setting [1], the inhibition at 5.2 µg/mL amounted to 88.6%.

Turning to `CCCCN(Cc1ccc(C)cc1)C(=O)Nc1ccc(C)cc1C` [1-(n-Butyl)-1-(4-methylbenzyl)-3-(2,4-dimethylphenyl)urea], the inhibition at 5.2 µg/mL under setting [1] turned out to be 96.7%.

As to `O=C(Nc1cccc(C(F)(F)F)c1)N(Cc1ccccc1)C(Cc1ccccc1)c1ccc(OCc2ccccc2)cc1` (stereo not shown) [1-Benzyl-1-[2-phenyl-1-(4-benzyloxyphenyl)ethyl]-3-(3-trifluoromethylphenyl)urea], the inhibition at 5.2 µg/mL under setting [1] was 74%.

In turn, `CCCCCCCN(Cc1ccc(CCCC)cc1)C(=O)Nc1c(F)cc(F)cc1F` [1-[(4-butylphenyl)methyl]-1-(n-heptyl)-3-[2,4,6-trifluorophenyl]urea] gave an inhibition at 5.2 µg/mL of 90%.

For the compound `CCCCCCCCCCN(Cc1ccccc1)C(=O)Nc1ccc(C)cc1C` [1-(n-Decyl)-1-benzyl-3-(2,4-dimethylphenyl)urea], under setting [1], the inhibition at 5.2 µg/mL is 96.1%.

In turn, `CCCCc1ccc(CN(CCCCCCOS(C)(=O)=O)C(=O)Nc2c(Cl)cc(Cl)cc2Cl)cc1` [1-[(4-Butylphenyl)methyl]-1-[6-(methylsulfonyloxy)-hexyl]-3-(2,4,6-trichlorophenyl)urea] returned an inhibition at 5.2 µg/mL of 90%.

For the compound `CCCCN(Cc1ccccc1)C(=O)Nc1cc(Cl)c(N)c(Cl)c1` [1-(n-Butyl)-1-benzyl-3-(4-amino-3,5-dichlorophenyl)urea], under setting [1], the inhibition at 5.2 µg/mL was 61.1%.

Regarding `Cc1cccc(CN(CCc2ccccc2Cl)C(=O)Nc2ccc(C)cc2C)c1` [1-[2-(2-Chlorophenyl)ethyl]-1-(3-methylbenzyl)-3-(2,4-dimethylphenyl)urea], the inhibition at 5.2 µg/mL under setting [1] was found to be 56.1%.

As to `CCCCN(CCc1ccccc1)C(=O)Nc1ccc(C)cc1C` [1-(n-Butyl)-1-(2-phenylethyl)-3-(2,4-dimethylphenyl)urea], under setting [1], the inhibition at 5.2 µg/mL amounted to 87.9%.

As to `CCCCc1ccc(CN(CCOCCO)C(=O)Nc2ccc(C)cc2C)cc1` [1-[(4-Butylphenyl)methyl]-3-(2,4-dimethylphenyl)-1-[2-(2-hydroxyethoxy)ethyl]urea], the inhibition at 5.2 µg/mL under setting [1] worked out at 74.5%.

As to `Cc1ccc(NC(=O)N(CCc2ccccc2Cl)Cc2ccc(C)c(C)c2)c(C)c1` [1-[2-(2-Chlorophenyl)ethyl]-1-(3,4-dimethylbenzyl)-3-(2,4-dimethylphenyl)urea], under setting [1], the inhibition at 5.2 µg/mL came out at 92.8%.

On to `CCCCN(CCc1ccc(Cl)cc1)C(=O)Nc1ccc(C)cc1C` [1-(n-Butyl)-1-[2-(4-chlorophenyl)ethyl]-3-(2,4-dimethylphenyl)urea], for which the inhibition at 5.2 µg/mL under setting [1] turned out to be 93.3%.

Consider `CCCCN(CCc1cccc(Br)c1)C(=O)Nc1ccc(C)cc1C` [1-(n-Butyl)-1-[2-(3-bromophenyl)ethyl]-3-(2,4-dimethylphenyl)urea], for which, under setting [1], the inhibition at 5.2 µg/mL came to 97%.

`CCCCc1ccc(CN(CCC(C)(C)C)C(=O)Nc2c(F)cc(F)cc2F)cc1` [1-[(4-butylphenyl)methyl]-1-[3,3-dimethylbutyl]-3-[2,4,6-trifluorophenyl]urea] yielded an inhibition at 5.2 µg/mL of 90%.

For the compound `CCCCCOc1ccc(CN(Cc2ccc(CCCCC)cc2)C(=O)Nc2cccc(C(F)(F)F)c2)cc1` [1-(4-n-Pentylbenzyl)-1-(4-n-pentyloxybenzyl)-3-(3-trifluoromethylphenyl)urea], under setting [1], the inhibition at 5.2 µg/mL was 85%.

As to `CCCCCCOc1ccc(CN(CCCC)C(=O)Nc2c(C)cc(C)cc2C)cc1` [1-(n-Butyl)-1-(4-hexyloxybenzyl)-3-(2,4,6-trimethylphenyl)urea], the inhibition at 5.2 µg/mL under setting [1] stood at 97.1%.

Take `CCCCN(Cc1ccc2c(c1)OCO2)C(=O)Nc1ccc(C)cc1C` [1-(n-Butyl)-1-(3,4-methylenedioxybenzyl)-3-(2,4-dimethylphenyl)urea]: the inhibition at 5.2 µg/mL under setting [1] is 88.2%.

As for `CCCCN(CC(C)(c1ccccc1)c1ccccc1)C(=O)Nc1ccc(C)cc1C` [1-(n-Butyl)-1-(2-methyl-2,2-diphenyl)ethyl-3-(2,4-dimethylphenyl)urea], the inhibition at 5.2 µg/mL under setting [1] is 97.4%.

On to `CCOc1ccc(CCN(Cc2ccccc2Cl)C(=O)Nc2ccc(C)cc2C)cc1` [1-[2-(4-Ethoxyphenyl)ethyl]-1-(2-chlorobenzyl)-3-(2,4-dimethylphenyl)urea], for which the inhibition at 5.2 µg/mL under setting [1] worked out at 94.1%.

For `COc1ccc(OC)c(CCN(Cc2cccc(Cl)c2)C(=O)Nc2ccc(C)cc2C)c1` [1-[2-(2,5-Dimethoxyphenyl)ethyl]-1-(3-chlorobenzyl)-3-(2,4-dimethylphenyl)urea], the inhibition at 5.2 µg/mL under setting [1] amounted to 97.1%.

As to `CCCCN(Cc1ccccc1)C(=O)Nc1ccc(Cl)c(Cl)c1` [1-Benzyl-1-( -n-butyl)-3-(3,4-dichlorophenyl)urea], the inhibition at 5.2 µg/mL under setting [1] came out at 95.9%.

With `CCCCN(CCc1cccc(OC)c1)C(=O)Nc1ccc(C)cc1C` [1-(n-Butyl)-1-[2-(3-methoxyphenyl)ethyl]-3-(2,4-dimethylphenyl)urea], under setting [1], the inhibition at 5.2 µg/mL was determined as 98.3%.

Take `Cc1ccc(NC(=O)N(CCc2ccccc2C)Cc2ccc(Br)cc2)c(C)c1` [1-[2-(2-Methylphenyl)ethyl]-1-(4-bromobenzyl)-3-(2,4-dimethylphenyl)urea]: under setting [1], the inhibition at 5.2 µg/mL was determined as 29.2%.

As to `CCCCN(Cc1ccc(Cl)cc1)C(=O)Nc1ccc(C)cc1C` [1-(n-Butyl)-1-(4-chlorobenzyl)-3-(2,4-dimethylphenyl)urea], under setting [1], the inhibition at 5.2 µg/mL came to 94.6%.

`CCCCN(Cc1ccccc1)C(=O)Nc1ccc(C)cc1` [1-Benzyl-1-( -n-butyl)-3-(4-methylphenyl)urea]: the inhibition at 5.2 µg/mL under setting [1] was 78%.

As to `CCCCN(Cc1ccccc1)C(=O)Nc1cc(Cl)c(NC(=O)C(F)(F)F)c(Cl)c1` [1-(n-Butyl)-1-benzyl-3-(4-trifluoroacetylamino-3,5-dichlorophenyl)urea], the inhibition at 5.2 µg/mL under setting [1] was 87.8%.

For the compound `CCCCN(Cc1ccccc1)C(=O)Nc1cc(Cl)cc(Cl)c1` [1-Benzyl-1-( -n-butyl)-3-(3,5-dichlorophenyl)urea], the inhibition at 5.2 µg/mL under setting [1] turned out to be 90.7%.

As to `CCCCc1ccc(CN(CCCC)C(=O)Nc2ccc(C)cc2C)cc1` [1-( -n-Butyl)-1-(4- -n-butylbenzyl)-3-(2,4-dimethylphenyl)urea], under setting [1], the inhibition at 5.2 µg/mL amounted to 94.4%.

As for `COc1ccc(CCN(Cc2ccc(F)cc2)C(=O)Nc2ccc(C)cc2C)cc1OC` [1-[2-(3,4-Dimethoxyphenyl)ethyl]-1-(4-fluorobenzyl)-3-(2,4-dimethylphenyl)urea], the inhibition at 5.2 µg/mL under setting [1] is 57.4%.

Regarding `Cc1ccc(NC(=O)N(CCc2cccc(C(F)(F)F)c2)Cc2ccccc2Cl)c(C)c1` [1-[2-(3-Trifluoromethylphenyl)ethyl]-1-(2-chlorobenzyl)-3-(2,4-dimethylphenyl)urea], the inhibition at 5.2 µg/mL under setting [1] amounted to 7.8%.

With `CCCCCCCN(CCc1ccccc1)C(=O)Nc1cccc(C(F)(F)F)c1` [1-(n-Heptyl)-1-(2-phenylethyl)-3-(3-trifluoromethylphenyl)urea], the inhibition at 5.2 µg/mL under setting [1] was found to be 88.4%.

With “1-[(4-Butylphenyl)methyl]-1-[6-[(methylsulfonyl)oxy]-hexyl]-3-[(2,4,5-trimethylphenyl)methyl]urea”, the “% Inhibition” value (rat adrenal ACAT, final concentration 5.2 μg/ml) came to 90.0%.

Consider `CCCCN(Cc1ccccc1)C(=O)Nc1cc(C)ccc1C` [1-Benzyl-1-( -n-butyl)-3-(2,5-dimethylphenyl)urea], for which, under setting [1], the inhibition at 5.2 µg/mL came to 92.7%.

Usually inhibition stands for the share of the control response that was lost under treatment. As usually defined, the % Inhibition is the drop in the measured response relative to a control, in per cent. A higher % Inhibition goes with a response far below the control.

Source of the values: patent US4623662A, “Antiatherosclerotic ureas and thioureas” (American Cyanamid Company, priority 1985, dated 1986).
